Experimental data published in patent US20260158148A1, “PRODRUG INTENDED FOR THE TREATMENT OF BACTERIAL […] TO A[…] THE BETA-LACTAM FAMILY” (Osta Therapeutics, priority 2022, published 2026).

Test system: beta-lactamase
Experiment: In-vitro cleavage of the OSTA-1 prodrug by beta-lactamase (release of trans-cinnamaldehyde monitored by UV absorption at 285 nm)
Type: biochemical
Method: Cleavage of the OSTA-1 prodrug was tested in vitro by contact with a beta-lactamase in saline aqueous media.
The cleavage test is performed in physiological saline buffer (Phosphate Buffer Saline, PBS) at pH 7.0. The OSTA-1 molecule is added at a concentration of 100 microM, along with commercial beta-lactamase at a concentration of 1 unit per mL. Incubation is carried out at 37° C. The appearance of free trans-cinnamaldehyde in the medium is then monitored by UV absorption at 285 nm.
The release of the active ingredient, in this case trans-cinnamaldehyde, was monitored by UV absorption at 285 nm. The progress of the release of the prodrug molecule's active ingredient (100 microM) was observed, in the presence and absence of beta-lactamase.

COC(/C=C/c1ccccc1)N(C)C(=O)OCC1=C(C(=O)O)N2C(=O)[C@@H](NC(=O)Cc3cccs3)[C@H]2SC1 (stereo partly drawn) [OSTA-1] was tested, and the “cleavability by beta-lactamase (conclusion)” value (in vitro, saline aqueous media) was “cleavable by beta-lactamase and releases the active ingredient”, the “spontaneous release of the active ingredient in the absence of beta-lactamase” value (prodrug 100 microM, PBS pH 7.0, 37° C., no beta-lactamase, UV absorption at 285 nm) was “no spontaneous release” and the “release of the active ingredient (trans-cinnamaldehyde) in the presence of beta-lactamase” value (prodrug 100 microM, commercial beta-lactamase 1 unit per mL, PBS pH 7.0, 37° C., UV absorption at 285 nm, after two hours) was “released in significant quantities”.
